The test system of series [1] is HCT116 cells (Securin+/+, securin parental, HCT116 FB). In words: Growth inhibition (sulforhodamine B, 5 days) of securin parental cells. It counts as cell-based. Conditions: Homo sapiens, HCT-116, 120 h, SRB. The procedure: (§1) IC50 analysis was performed for selected fused bicyclic 2-aryl or 2-heteroarylthiazolyl compounds that were tested on HCT116 cells and Securin “knock out” cell lines.
(§2) Cell Culture—HCT116 and securin “knock out” cells. HCT116 and securin “knock out” cells (D8 and F3) were grown in RPMI+5% fetal bovine serum and gentamycin. They were maintained in a humidified 37° C. incubator with 5% CO2. Since the securin “knock out” cells have active chromosomal instability, cells were used at a low passage number of 2-13 passages. At or before passage 13 a new vial of cells was thawed and used for the screen. Cell seeding—HCT116 cells and securin “knock out” cells were trypsinized and suspended in RPMI+5% FBS at a density of 27,000 cells/mL. HCT116 and securin “knock out” cells were seeded separately in wells of a 96-well plate (Falcon Cat # 35-3872) at a cell density of 4000 cells per well. Cells were seeded in 150 μL of RPMI media containing 5% FBS and gentamycin. Cell seeding was performed under aseptic conditions. Cells were allowed to attach and grow overnight in a humidified 37° C. incubator.
(§3) Compound Dilution and Dispensation. A series of stock solutions, 10 mg/mL of fused bicyclic 2-aryl- or 2-heteroarylthiazolyl compounds to be tested, were brought to room temperature. The compounds were diluted 1:50 in RPMI+5% FBS (Highest concentration 200 μg/mL). The compounds were then serially diluted 1:3 across a deep-well titration plate resulting in final concentrations in the plate of 200, 66.7, 22.2, 7.4, 2.4, 0.8, 0.27, 0.091, 0.03, 0.01, and 0.0034 μg/mL with one well left without a compound. 50 μL of this dilution series was added to the 150 μL of cells to result in a final concentration of compound in with the cells of 50, 16.6, 5.5, 1.8, 0.6, 0.2, 0.068, 0.023, 0.0076, 0.0025, and 0.00084 μg/mL. The dilution and addition of compounds to the plates is performed using a Multimek 96 Robot (Beckman Coulter).
(§4) Incubation and analysis. After dosing, the cells in the 96 well plates were returned to the humidified 37° C. incubator. The compounds remained on the cells for 5 days. After 5 days, the cells were fixed to the plates with the addition of 50 μL of 50% (vol/vol) Trichloro Acetic Acid ([…]). The cells were fixed at 4° C. for 1 hour. The plates were washed 5 times in distilled water and allowed to dry. The cells were stained with 0.4% sulforhodamine B (Sigma) in 1% acetic acid. The cells were stained for 15 minutes at room temperature. The plates were then washed 3 times in 1% acetic acid. The plates were dried and the dye was solubilized in 10 mM Tris at pH 8.0. The plates were read on the Absorbence 560 setting on a Victor^2 V Model 1420 Multilabel HTS counter (Perkin Elmer).
(§5) Analysis of Results—IC50 data. Absorbence data was read off of the Victor and was converted to a percentage of the control (untreated) values. IC50 values were graphed and the point at which a 50% inhibition of the control level was determined. […] If the model was not able to determine an IC50, the IC50 was assigned to the lowest concentration that gives a 50% or greater decrease in absorbence compared to control levels. If the calculated IC50 value for a cell line exceeds the top concentration for the assay (typically 50 μg/mL), the assay was scored as >50.
(§6) Selectivity Ratio. The Selectivity Ratio is the ratio of IC50s between the parent cell line and the knock out cell line and is always a positive number and is typically an integer.

In series [2] the test system is securin "knock out" cells D8 (Securin-/-). Put plainly: Growth inhibition (sulforhodamine B, 5 days) of securin knock out cells D8. It counts as cell-based. The settings on record: for IC50: 120 h, securin knock out D8 cells, 5 days, SRB; for Selectivity Ratio D8: IC50 HCT116 / IC50 securin KO D8. The procedure:
as §1, §2, §3, §4, §5, §6

Series [3] has as its system securin "knock out" cells F3 (Securin-/-). In words: Growth inhibition (sulforhodamine B, 5 days) of securin knock out cells F3. Type of series: cell-based. The settings on record: for IC50: 120 h, securin knock out F3 cells, 5 days, SRB; for Selectivity Ratio F3: IC50 HCT116 / IC50 securin KO F3. The procedure:
as §1, §2, §3, §4, §5, §6

Series [4] has as its system Xenografts of a Human Breast Carcinoma Cell Line (MDA-MB-361). In words: Tumor xenograft study versus Herceptin (Table 2). It counts as in vivo. The procedure:
(§7) Selected fused bicyclic 2-aryl- or 2-heteroarylthiazolyl compounds of formula I were tested for their activity in a securin parental cell line (HCT116 FB) and a securin knockout (KO) cell line. […] The in-vivo activity of selected fused bicyclic 2-aryl- or 2-heteroarylthiazolyl compounds of formula I was studied in cells growing as xenografts in athymic (nude) mice. The effect of Examples 164, 166 and 167 was studied in xenografts of a human breast carcinoma cell line (MDA-MB-361).
(§8) In-vivo Activity in Tumor Xenografts. […] The fused bicyclic 2-arylthiazolyl compounds were formulated using 0.5% Methocel™ (methylcellulose) and 0.4% Tween 80™ (polysorbate-80 and oleic acid) and administered daily orally (PO), by gavage or by syringe. Tumor mass [(length×width^2)/2] was determined every 7 days. Inhibition of tumor growth was calculated relative to conventional (vehicle treated) controls.

For series [5] the test system is unchanged. In words: Tumor xenograft study versus Vincristine (Table 3). Type of series: in vivo. Conditions: days 2 through 21. The protocol: as §7, §8
The effectiveness of Examples 164, 166 and 167 versus Vincristine at controlling tumor growth was studied and the results are summarized in Table 3 and FIG. 2.

The mark [6] stands for this setting: 25 mg/kg/dose IP, days 1, 3, 5 ... 19.
Setting [7] is: 25 mg/kg/dose PO, days 1 through 20.

SMILES strings stand for the structures.

For the compound `CN(C)c1ccc(-c2nc3c(s2)C(O)CCC3)c(Br)c1` (centres unmarked) [Example 140, 2-[2-bromo-4-(dimethylamino)phenyl]-4,5,6,7-tetrahydro-1,3-benzothiazol-7-ol], the IC50 in series [1] is 37.2 µM. In series [2], the IC50 came out at 0.57 µM and the “Selectivity Ratio D8” value was found to be 66. For the same compound, in series [3], it took 1.8 µM to reach half-maximal inhibition (IC50) and the “Selectivity Ratio F3” value is recorded as 21.

Regarding `O=[N+]([O-])c1cc(N2CCCC2)ccc1-c1nc2c(s1)C(O)CCC2` (centres unmarked) [Example 151, 2-(2-nitro-4-pyrrolidin-1-ylphenyl)-4,5,6,7-tetrahydro-1,3-benzothiazol-7-ol], the IC50 in series [1] amounted to 38 µM; in series [2] it was 0.046 µM; in series [3], 0.053 µM. In addition, the “Selectivity Ratio D8” value in series [2] came out at 832. In addition, the “Selectivity Ratio F3” value in series [3] is reported as 724.

With `C[S+]([O-])c1cc(N2CCCC2)ccc1-c1nc2c(s1)C(O)CCC2` (centres unmarked) [Example 155, 2-[2-(Methylsulfinyl)-4-pyrrolidin-1-ylphenyl]-4,5,6,7-tetrahydro-1,3-benzothiazol-7-ol], the IC50 in series [1] was 38.8 µM. Moreover, in series [2], the IC50 is 0.099 µM and the “Selectivity Ratio D8” value is recorded as 390. Also, in series [3], the IC50 was determined as 0.17 µM and the “Selectivity Ratio F3” value came out at 224.

For the compound `OC1CCCc2nc(-c3ccc(N4CCCC4)cc3)sc21` (centres unmarked) [Example 158, 2-(4-pyrrolidin-1-yl-phenyl)-4,5,6,7-tetrahydro-benzothiazol-7-ol], the IC50 in series [1] was determined as 154 µM. In series [2], the IC50 was found to be 1.7 µM and the “Selectivity Ratio D8” value was 91. In addition, in series [3], the midpoint of inhibition, the IC50, lay at 2.9 µM and the “Selectivity Ratio F3” value came out at 54.

Take `COC(=O)c1cc(N2CCCC2)ccc1-c1nc2c(s1)C(O)CCC2` (centres unmarked) [Example 161, 2-(7-Hydroxy-4,5,6,7-tetrahydro-benzothiazol-2-yl)-5-pyrrolidin-1-yl-benzoic acid methyl ester]: the IC50 in series [1] was found to be 66.3 µM. Further, in series [2], the IC50 was 0.4 µM and the “Selectivity Ratio D8” value is on record as 165. For the same compound, in series [3], inhibition was half-maximal at 0.52 µM (IC50) and the “Selectivity Ratio F3” value was found to be 128.

On to `OCc1cc(N2CCCC2)ccc1-c1nc2c(s1)C(O)CCC2` (centres unmarked) [Example 162, 2-(2-Hydroxymethyl-4-pyrrolidin-1-yl-phenyl)-4,5,6,7-tetrahydro-benzothiazol-7-ol], for which the IC50 in series [1] worked out at 15.3 µM. Also, in series [2], the concentration for half-maximal inhibition (IC50) was determined as 0.05 µM and the “Selectivity Ratio D8” value worked out at 304. For the same compound, in series [3], half-maximal inhibition (IC50) was put at 0.046 µM and the “Selectivity Ratio F3” value is given as 333.

`OC1CCCc2nc(-c3ccc(N4CCNCC4)cc3)sc21` (centres unmarked) [Example 163, 2-(4-piperazin-1-yl-phenyl)-4,5,6,7-tetrahydrobenzothiazol-7-ol]: the IC50 in series [1] is 31.6 µM. For the same compound, in series [2], it took 25.9 µM to reach half-maximal inhibition (IC50) and the “Selectivity Ratio D8” value is 1. In series [3], the 50% inhibitory concentration (IC50) is 22.9 µM and the “Selectivity Ratio F3” value is 1.

In the case of `CN(C)c1ccc(-c2nc3c(s2)[C@H](O)CCC3)cc1` [Example 164, (7R)-2-[4-(dimethylamino)phenyl]-4,5,6,7-tetrahydro-1,3-benzothiazol-7-ol], in series [1], the IC50 worked out at 101 µM. In series [2], the “selectivity ratios (IC50 HCT116 FB/IC50 securin KO)” value is reported as “high selectivity ratios”, the IC50 was 0.81 µM and the “Selectivity Ratio D8” value was found to be 124. Also, in series [3], 1.3 µM corresponded to half-maximal inhibition (IC50) and the “Selectivity Ratio F3” value was 78. For the same compound, in series [4] (setting [6]), the “% T/C Day 7” value turned out to be 64%, the “% T/C Day 14” value is 101%, the “% T/C Day 21” value stood at 74% and the “Relative Tumor Growth Day 7” value is given as 1.23. In series [4] (setting [6]), the “Relative Tumor Growth Day 14” value was 3.23, the “Relative Tumor Growth Day 21” value stood at 8.04 and the “S/T = # of Survivors/# of Treated on Day +21” value is on record as 4/5. Also, in series [4] (setting [7]), the “% T/C Day 7” value amounted to 81%, the “% T/C Day 14” value is on record as 115%, the “% T/C Day 21” value was 117% and the “Relative Tumor Growth Day 7” value was 1.57. In series [4] (setting [7]), the “Relative Tumor Growth Day 14” value amounted to 3.68, the “Relative Tumor Growth Day 21” value was determined as 12.27 and the “S/T = # of Survivors/# of Treated on Day +21” value is on record as 5/5. Besides, in series [5] (25 mg/kg/dose PO), the “% T/C Day 8” value stood at 41%, the “% T/C Day 15” value was found to be 37%, the “% T/C Day 22” value turned out to be 45% and the “Relative Tumor Growth Day 8” value is given as 2.17. Moreover, in series [5] (25 mg/kg/dose PO), the “Relative Tumor Growth Day 15” value was determined as 4.64, the “Relative Tumor Growth Day 22” value amounted to 10.02 and the “Relative Tumor Growth Day 29” value was determined as 15.52. Also, in series [5] (50 mg/kg/dose PO), the “% T/C Day 8” value is on record as 45%, the “Relative Tumor Growth Day 8” value was 2.37 and the “Relative Tumor Growth Day 15” value is recorded as “Toxic”. The “S/T = # of Survivors/# of Treated on Day +36” value in series [5] (50 mg/kg/dose PO, * = sacrificed earlier due to tumor size) is listed as 0/5.

As for `COC(=O)c1cc(N(C)C)ccc1-c1nc2c(s1)[C@H](O)CCC2` [Example 165, methyl 5-(dimethylamino)-2-[(7R)-7-hydroxy-4,5,6,7-tetrahydro-1,3-benzothiazol-2-yl]benzoate], the IC50 in series [1] was found to be 100 µM. Further, in series [2], 0.29 µM corresponded to half-maximal inhibition (IC50) and the “Selectivity Ratio D8” value was found to be 348. In series [3], the IC50 was found to be 0.74 µM and the “Selectivity Ratio F3” value is 136.

Broadly, the IC50 is the concentration at which inhibition is half-maximal.

Values taken from patent US20090270363A1, “2-Aryl- and 2-Heteroarylthiazolyl Compounds, Methods for Their Preparation and Use Thereof” (Wyeth, priority 2008, published 2009).
